# Data taken from patent US20110213028A1, “FATTY ACID MYCOPHENOLATE DERIVATIVES AND THEIR USES” (CATABASIS PHARMACEUTICALS, INC., priority 2010, published 2011).
# Key:
# [1] = tested on: SLE-prone MRLlpr/lpr mice; settings: 100 mg/kg in drinking water; cited from earlier work
# [2] = tested on: (NZB X NZW)F1 mouse model of systemic lupus erythematosus; settings: 200 mg/kg/day over a 6 week period; cited from earlier work
# [3] = tested on: systemic lupus erythematosus patients; settings: mean dose of 1,328 mg/a day over a 1 or 2 year period; cited from earlier work
# IL-1β = test: Effect on IL-1β expression in LPS-stimulated RAW 264.7 macrophages; format: cell-based; settings: RAW 264.7 mouse macrophages, dosed at 50 μM and 100 μM, 100 ng/ml LPS stimulation, FIG. 1
# Method: RAW264.7 macrophages were seeded at a density of 100,000 cells/well in a 96-well plate in DMEM supplemented with 10% FBS and Penn/strep. 16 hours later, medium was aspirated and replaced with 90 μL/well of serum-free DMEM. Test compounds were brought up in 100% EtOH to a concentration of 100 mM and then diluted 1:100 in 100% FBS for a stock solution consisting of 1mM compound and 1% EtOH. These stock solutions were then diluted 1:10 in FBS supplemented with 1% EtOH to generate a 100 μM of the test compounds. 10 μL was then added to the RAW246.7 cells to generate final concentrations consisting of 10 μM of the fatty acid mycophenolate conjugate, along with vehicle only control. The compounds were allowed to pre-incubate for 2 hours before stimulation of 100 ng/ml LPS (10 μL of 1 μg/ml LPS was added to each well). Following 3 hours of LPS stimulation, cells were washed once in 1 ×PBS, aspirated dry, and flash frozen in liquid nitrogen. RNA was then isolated and converted to cDNA using the Cells to cDNA kit (Ambion) according to the manufacturer's protocol. IL-1β transcript levels were then measured using Taqman primer/probe assay sets (Applied Biosystems), normalized to GAPDH using the deltaCt method, and the data expressed relative to vehicle only control. FIG. 1 summarizes the effects of compounds I-1, I-2, I-5, and I-10 on the expression of IL-1β in RAW 264.7 mouse macrophages. All four compounds were dosed at 50 μM and 100 μM.
smiles,measurement,setting,value
COc1c(C)c2c(c(O)c1C/C=C(\C)CCC(=O)OCCN1CCOCC1)C(=O)OC2 [mycophenolate mofetil],"survival, C3 deposition in glomeruli, albuminuria and haematuria",[1],"able to prolong survival, reduce the extent of deposition of C3 in glomeruli and reduce the occurrence of albuminuria and haematuria"
same,autoimmunity and mortality,[2],able to suppress autoimmunity and mortality
same,disease flares,[3],effective in reducing disease flares
"CC/C=C\C/C=C\C/C=C\C/C=C\C/C=C\C/C=C\CCC(=O)NCCNC(=O)CC/C(C)=C/Cc1c(O)c2c(c(C)c1OC)COC2=O [Compound I-1, (4Z,7Z,10Z,13Z,16Z,19Z)-N-(2((E)-6-(4-hydroxy-6-methoxy-7-methyl-3-oxo-1,3-dihydroisobenzofuran-5-yl)-4-methylhex-4-enamido)ethyl)docosa-4,7,10,13,16,19-hexaenamide]",IL-1β expression (transcript level relative to vehicle only control),IL-1β,statistically significant decrease in IL-1β expression
"CC/C=C\C/C=C\C/C=C\C/C=C\C/C=C\CCCC(=O)NCCNC(=O)CC/C(C)=C/Cc1c(O)c2c(c(C)c1OC)COC2=O [Compound I-10, (5Z,8Z,11Z,14Z,17Z)-N-(2-((E)-6-(4-hydroxy-6-methoxy-7-methyl-3-oxo-1,3-dihydroisobenzofuran-5-yl)-4-methylhex-4-enamido)ethyl)icosa-5,8,11,14,17-pentaenamide]",IL-1β expression (transcript level relative to vehicle only control),IL-1β,statistically significant decrease in IL-1β expression
"CC/C=C\C/C=C\C/C=C\C/C=C\C/C=C\C/C=C\CCC(=O)NCCSSCCNC(=O)CC/C(C)=C/Cc1c(O)c2c(c(C)c1OC)COC2=O [Compound I-5, (4Z,7Z,10Z,13Z,16Z,19Z)-N-(2-(2-(2-((E)-6-(4-hydroxy-6-methoxy-7-methyl-3-oxo-1,3-dihydroisobenzofuran-5-yl)-4-methylhex-4-enamido)ethyl)disulfanyl)ethyl)docosa-4,7,10,13,16,19-hexaenamide]",IL-1β expression (transcript level relative to vehicle only control),IL-1β,statistically significant decrease in IL-1β expression
"CC/C=C\C/C=C\C/C=C\C/C=C\C/C=C\C/C=C\CCC(=O)NCCOCCNC(=O)CC/C(C)=C/Cc1c(O)c2c(c(C)c1OC)COC2=O [Compound I-2, (4Z,7Z,10Z,13Z,16Z,19Z)-N-(2-(2((E)-6-(4-hydroxy-6-methoxy-7-methyl-3-oxo-1,3-dihydroisobenzofuran-5-yl)-4-methylhex-4-enamido)ethoxy)ethyl)docosa-4,7,10,13,16,19-hexaenamide]",IL-1β expression (transcript level relative to vehicle only control),IL-1β,statistically significant decrease in IL-1β expression
